Measured values from patent publication US3950525A, “Relaxation of smooth muscle in a mammal” (Pfizer Inc., priority 1975, dated 1976).
Structures can show the parent of a compound that is named as a salt.

Tested on: collagen induced platelet aggregation
Test: In Vitro Inhibition of Platelet Aggregation (collagen induced, rabbit platelet-rich plasma)
Format: cell-based
Conditions: Oryctolagus cuniculus, 10 min; for inhibition at 60 µM: 6 × 10^^-5 mol./l.; for inhibition at 6 µM: 6 × 10^^-6 mol./l.; for inhibition at 600 µM: 6 × 10^^-4 mol./l.
Protocol: The ability of the compounds of the present invention to inhibit platelet aggregation in vitro is measured according to the method of Born, et al., J. Physiol., 168, 178 (1963) and comprises the following procedure: Anesthetized male rabbits are bled from a carotid artery into plastic centrifuge tubes containing 0.1 volume 3% sodium citrate. Platelet-rich plasma is separated by centrifugation at 100 G for 10 minutes at 20° C. […] After 10 minutes of incubation with the platelet-rich plasma at room temperature, collagen, a protein known to cause platelet aggregation, is added (0.27 ml. collagen/4 ml. plasma) and changes in the optical density are followed with a Spectronic 20 colorimeter attached to a Houston Instrument TY Recorder. Platelet aggregation is indicated by a decrease in optical density. The relative potency of the compounds of the present invention are thus rated on their ability to inhibit (percent) collagen induced platelet aggregation.

| Structure (SMILES) | inhibition at 60 µM [%] | inhibition at 6 µM [%] | inhibition at 600 µM [%] |
| --- | --- | --- | --- |
| C=CCN(CC=C)c1cc(-c2cccs2)ncn1 | 50 | 40 |  |
| CCCC(=O)Nc1cccc(-c2cc(N(CC)CC)ncn2)c1 | 8 |  | 36 |
| CCCCN(CCCC)c1cc(-c2cccc(NC(C)=O)c2)ncn1 |  |  | 15 |
| CCN(CC)c1cc(-c2cccc(NC(=O)NC)c2)ncn1 |  |  | 23 |
| CCN(CC)c1cc(-c2cccc(NC(=S)NC)c2)ncn1 |  |  | 4.9 |
| CCN(CC)c1cc(-c2cccc(NC(=O)OC)c2)ncn1 | 11 |  | 95 |
| CCCN(CCC)c1cc(-c2cccc(NS(C)(=O)=O)c2)ncn1 | 3 |  | 94 |
| CCN(CCO)c1cc(-c2ccc(OC)cc2)ncn1 | 71 | 55 | 90 |
| C=CCN(CC=C)c1cc(-c2ccc(OC)cc2)ncn1 |  | 55 | 90 |
| COc1ccc(-c2cc(N3CCN(C)CC3)ncn2)cc1 | 55 | 14 | 85 |
| CCCN(CCC)c1cc(-c2ccc(OC)cc2)ncn1 | 77 | 64 | 91 |
| CN1CCN(c2cc(-c3ccc(Cl)cc3)ncn2)CC1 [4-(4-Methyl-1-piperazinyl)-6-(p-chlorophenyl)pyrimidine hydrochloride] | 65 | 2 | 99 |
| CN1CCN(c2cc(-c3ccccc3)ncn2)CC1 [4-(4-Methyl-1-piperazinyl)-6-phenylpyrimidine dihydrochloride] | 99 | 59 | 99 |
| CCc1c(-c2ccco2)ncnc1N(CC)CC [Ar=2-furyl; R1=C2H5; R2=C2H5; R3=C2H5] | 30 |  |  |
| CCN(CC)c1cc(-c2cccs2)ncn1 [Ar=2-thienyl; R1=C2H5; R2=C2H5; R3=H, 4-diethylamino-6-(2-thienyl)pyrimidine] |  | 75 | 94 |
| CCNc1cc(-c2cccs2)ncn1 [Ar=2-thienyl; R1=C2H5; R2=H; R3=H] | 75 | 35 | 99 |
| CCN(CC(F)(F)F)c1cc(-c2cccs2)ncn1 [Ar=2-thienyl; R1=CF3CH2; R2=C2H5; R3=H] | 65 | 58 | 75 |
| FC(F)(F)CNc1cc(-c2cccs2)ncn1 [Ar=2-thienyl; R1=CF3CH2; R2=H; R3=H] | 81 | 14 |  |
| CN(C)c1cc(-c2cccs2)ncn1 [Ar=2-thienyl; R1=CH3; R2=CH3; R3=H] | 82 | 59 | 94 |
| Nc1cc(-c2cccs2)ncn1 [Ar=2-thienyl; R1=H; R2=H; R3=H] | 9 |  | 91 |
| CCCN(CCC)c1cc(-c2cccs2)ncn1 [Ar=2-thienyl; R1=n-C3H7; R2=n-C3H7; R3=H] | 60 | 66 | 60 |
| CCN(CC)c1cc(-c2cccc(N(C)C)c2)ncn1 [Ar=3-(CH3)2NC6H4; R1=C2H5; R2=C2H5; R3=H, 4-Diethylamino-6-(m-dimethylaminophenyl)pyrimidine hydrochloride] | 95 | 85 | 89 |
| CCCN(CCC)c1cc(-c2cccc(C(F)(F)F)c2)ncn1 [Ar=3-CF3C6H4; R1=n-C3H7; R2=n-C3H7; R3=H, 4-Di(n-propyl)amino-6-(m-trifluoromethylphenyl)pyrimidine hydrochloride] | 50 |  | 99 |
| CC(=O)Nc1cccc(-c2cc(N3CCCC3)ncn2)c1 [Ar=3-CH3CONHC6H4; R1,R2=--(CH2)4--; R3=H] | 30 |  | 94 |
| CC(=O)Nc1cccc(-c2cc(N(C)C)ncn2)c1 [Ar=3-CH3CONHC6H4; R1=CH3; R2=CH3; R3=H] | 13 |  | 93 |

| Structure (SMILES) | inhibition at 60 µM [%] | inhibition at 6 µM [%] | inhibition at 600 µM [%] |
| --- | --- | --- | --- |
| Nc1cccc(-c2cc(N3CCCC3)ncn2)c1 [Ar=3-NH2C6H4; R1,R2=--(CH2)4--; R3=H] |  |  | 11 |
| CCN(CC)c1cc(-c2cccc(N)c2)ncn1 [Ar=3-NH2C6H4; R1=C2H5; R2=C2H5; R3=H, 4-Diethylamino-6-(m-aminophenyl)pyrimidine dihydrochloride] | 67 | 41 |  |
| CCCN(CCC)c1cc(-c2cccc(N)c2)ncn1 [Ar=3-NH2C6H4; R1=n-C3H7; R2=n-C3H7; R3=H] | 97 | 32 | 95 |
| O=[N+]([O-])c1cccc(-c2cc(N3CCCC3)ncn2)c1 [Ar=3-NO2C6H4; R1,R2=--(CH2)4--; R3=H] | 25 |  | 94 |
| COc1ccc(-c2cc(N3CCCC3)ncn2)cc1 [Ar=4-CH3OC6H4; R1,R2=--(CH2)4--; R3=H] | 92 | 39 | 92 |
| CCc1c(-c2ccc(OC)cc2)ncnc1N(CC)CC [Ar=4-CH3OC6H4; R1=C2H5; R2=C2H5; R3=C2H5] |  | 42 |  |
| COc1ccc(-c2cc(N(C)C)ncn2)cc1 [Ar=4-CH3OC6H4; R1=CH3; R2=CH3; R3=H] | 88 | 48 | 89 |
| CCNc1cc(-c2ccc(OC)cc2)ncn1 [Ar=4-CH3OC6H4; R1=H; R2=C2H5; R3=H] | 64 | 24 | 92 |
| CNc1cc(-c2ccc(OC)cc2)ncn1 [Ar=4-CH3OC6H4; R1=H; R2=CH3; R3=H] | 13 |  | 76 |
| COc1ccc(-c2cc(N)ncn2)cc1 [Ar=4-CH3OC6H4; R1=H; R2=H; R3=H] | 24 | 3 | 72 |
| COc1ccc(-c2cc(NCC(C)C)ncn2)cc1 [Ar=4-CH3OC6H4; R1=H; R2=i-C4H9; R3=H] | 54 | 24 | 76 |
| Clc1ccc(-c2cc(N3CCCC3)ncn2)cc1 [Ar=4-ClC6H4; R1,R2=--(CH2)4--; R3=H, 4-(1-Pyrrolidinyl)-6-(p-chlorophenyl)pyrimidine hydrochloride] | 21 |  | 99 |
| CCN(CC)c1cc(-c2ccc(Cl)cc2)ncn1 [Ar=4-ClC6H4; R1=C2H5; R2=C2H5; R3=H, 4-Diethylamino-6-(p-chlorophenyl)pyrimidine hydrochloride] | 73 | 32 |  |
| CCN(CCO)c1cc(-c2ccc(Cl)cc2)ncn1 [Ar=4-ClC6H4; R1=C2H5; R2=HO(CH2)2; R3=H] | 57 | 18 |  |
| FC(F)(F)CNc1cc(-c2ccc(Cl)cc2)ncn1 [Ar=4-ClC6H4; R1=CF3CH2; R2=H; R3=H, 4-(2,2,2-Trifluoroethylamino)-6-(p-chlorophenyl)pyrimidine hydrochloride] | 18 |  | 86 |
| CN(C)c1cc(-c2ccc(Cl)cc2)ncn1 [Ar=4-ClC6H4; R1=CH3; R2=CH3; R3=H, 4-Dimethylamino-6-(p-chlorophenyl)pyrimidine hydrochloride] | 58 | 7 | 99 |
| CCCN(CCC)c1cc(-c2ccc(Cl)cc2)ncn1 [Ar=4-ClC6H4; R1=n-C3H7; R2=n-C3H7; R3=H, 4-Di(n-propyl)amino-6-(p-chlorophenyl)pyrimidine hydrochloride] | 70 |  | 84 |
| c1ccc(-c2cc(N3CCOCC3)ncn2)cc1 [Ar=C6H5; R1,R2=--(CH2)2O(CH2)2--; R3=H, 4-(4-Morpholinyl)-6-phenylpyrimidine hydrochloride] | 75 | 37 | 94 |
| c1ccc(-c2cc(N3CCCC3)ncn2)cc1 [Ar=C6H5; R1,R2=--(CH2)4--; R3=H, 4-(1-Pyrrolidinyl)-6-phenylpyrimidine hydrochloride] | 70 | 6 | 98 |
| c1ccc(-c2cc(N3CCCCC3)ncn2)cc1 [Ar=C6H5; R1,R2=--(CH2)5--; R3=H, 4-(1-Piperidyl)-6-phenylpyrimidine hydrochloride] | 61 | 60 | 94 |
| c1ccc(-c2cc(N3CCCCCC3)ncn2)cc1 [Ar=C6H5; R1,R2=--(CH2)6--; R3=H, 4-(1-Hexahydroazepinyl)-6-phenylpyrimidine hydrochloride] | 83 | 29 | 99 |
| CN(Cc1cccnc1)c1cc(-c2ccccc2)ncn1 [Ar=C6H5; R1=3-picolyl; R2=CH3; R3=H, 4-[Methyl(3-pyridylmethyl)amino]-6-phenylpyrimidine dihydrochloride] | 17 |  | 99 |
| c1ccc(-c2cc(NCc3cccnc3)ncn2)cc1 [Ar=C6H5; R1=3-picolyl; R2=H; R3=H, 4-(3-Pyridylmethylamino)-6-phenylpyrimidine dihydrochloride] | 31 | 12 | 98 |
| CN(C)CCNc1cc(-c2ccccc2)ncn1 [Ar=C6H5; R1=(CH3)2N(CH2)2; R2=H; R3=H] | 30 |  | 99 |
